Source: patent US20130203789A1, “Novel Inhibitors of LYN Kinase and Methods Using Same” (VASSA INFORMATICS, priority 2012, published 2013)

Columns and labels:
Pim-1(h) = biological target: T1, Pim-1(h) (Homo sapiens, UniProt P11309); assay: Millipore kinase profiling, Pim-1; assay type: biochemical; settings: 100 μM concentration
T1 construct: purchased Millipore (Dundee UK), contract testing service
Description: (§1) The three compounds identified in Example 1 were tested for kinase activity at Millipore (Dundee UK). The compounds were shipped as 10 mM stocks in DMSO as per Millipore testing standards. The testing consisted of two initial phases:
(§2) (a) Profiling against a set of approximately 60 kinases, selected as representative of all kinases and current kinase drug targets, to determine the selectivity of the compounds; and, (b) IC50 testing againstr EGFR, the kinase target of the initial search template molecule.

Abl kinase (BCR-Abl) = Abl kinase (BCR-Abl) (Homo sapiens, UniProt P00519); assay: Kinase profiling, Abl; assay type: biochemical; settings: 100 μM concentration
Description: (§3) FIG. 9 is a schematic kinome tree illustrating the evolutionary relationships between 299 kinases. The inhibition of 68 representative kinases by VI301 at 100 μM concentration was evaluated.
as §1, §2

WNK3(h) = biological target: T2, WNK3(h) (Homo sapiens, UniProt Q9BYP7); assay: Millipore kinase profiling, WNK3; assay type: biochemical; settings: 100 μM concentration
T2 construct: purchased Millipore (Dundee UK), contract testing service
Description: as §1, §2

CamK1 = CamK1 (Homo sapiens, UniProt Q14012); assay: Kinase profiling, CamK1; assay type: biochemical; settings: 100 μM concentration
Description: as §3, §1, §2

Lyn(h) = biological target: T3, Lyn(h) (Homo sapiens, UniProt P07948); assay: Millipore kinase profiling, Lyn; assay type: biochemical; settings: 100 μM concentration
T3 construct: purchased Millipore (Dundee UK), contract testing service
Description: as §1, §2

LYN = settings: BT549 cells, Western blot; cited from earlier work
[1] = system: mesenchymal breast cancer lines; settings: at concentrations that inhibit LYN kinase activity; cited from earlier work
[2] = system: mesenchymal breast cancer lines; settings: at concentrations that inhibit LYN kinase activity; cited from earlier work; remark: listed apart in the source

T3 sequence (P07948 1-491 isoform P07948-2): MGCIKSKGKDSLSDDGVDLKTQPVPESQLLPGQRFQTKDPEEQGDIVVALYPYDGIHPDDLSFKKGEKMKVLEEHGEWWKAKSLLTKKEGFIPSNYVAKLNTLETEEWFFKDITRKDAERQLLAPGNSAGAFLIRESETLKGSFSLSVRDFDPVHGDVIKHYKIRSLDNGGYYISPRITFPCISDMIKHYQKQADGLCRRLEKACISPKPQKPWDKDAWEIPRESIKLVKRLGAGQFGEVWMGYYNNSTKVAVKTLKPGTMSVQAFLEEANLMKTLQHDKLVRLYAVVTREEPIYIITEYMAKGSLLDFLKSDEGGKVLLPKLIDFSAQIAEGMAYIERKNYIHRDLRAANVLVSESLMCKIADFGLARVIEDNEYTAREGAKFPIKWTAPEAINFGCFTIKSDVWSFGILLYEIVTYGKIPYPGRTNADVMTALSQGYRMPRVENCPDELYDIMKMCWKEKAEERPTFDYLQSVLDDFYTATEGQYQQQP
Sequence of Abl kinase (BCR-Abl) (P00519 27-1130 limits assumed): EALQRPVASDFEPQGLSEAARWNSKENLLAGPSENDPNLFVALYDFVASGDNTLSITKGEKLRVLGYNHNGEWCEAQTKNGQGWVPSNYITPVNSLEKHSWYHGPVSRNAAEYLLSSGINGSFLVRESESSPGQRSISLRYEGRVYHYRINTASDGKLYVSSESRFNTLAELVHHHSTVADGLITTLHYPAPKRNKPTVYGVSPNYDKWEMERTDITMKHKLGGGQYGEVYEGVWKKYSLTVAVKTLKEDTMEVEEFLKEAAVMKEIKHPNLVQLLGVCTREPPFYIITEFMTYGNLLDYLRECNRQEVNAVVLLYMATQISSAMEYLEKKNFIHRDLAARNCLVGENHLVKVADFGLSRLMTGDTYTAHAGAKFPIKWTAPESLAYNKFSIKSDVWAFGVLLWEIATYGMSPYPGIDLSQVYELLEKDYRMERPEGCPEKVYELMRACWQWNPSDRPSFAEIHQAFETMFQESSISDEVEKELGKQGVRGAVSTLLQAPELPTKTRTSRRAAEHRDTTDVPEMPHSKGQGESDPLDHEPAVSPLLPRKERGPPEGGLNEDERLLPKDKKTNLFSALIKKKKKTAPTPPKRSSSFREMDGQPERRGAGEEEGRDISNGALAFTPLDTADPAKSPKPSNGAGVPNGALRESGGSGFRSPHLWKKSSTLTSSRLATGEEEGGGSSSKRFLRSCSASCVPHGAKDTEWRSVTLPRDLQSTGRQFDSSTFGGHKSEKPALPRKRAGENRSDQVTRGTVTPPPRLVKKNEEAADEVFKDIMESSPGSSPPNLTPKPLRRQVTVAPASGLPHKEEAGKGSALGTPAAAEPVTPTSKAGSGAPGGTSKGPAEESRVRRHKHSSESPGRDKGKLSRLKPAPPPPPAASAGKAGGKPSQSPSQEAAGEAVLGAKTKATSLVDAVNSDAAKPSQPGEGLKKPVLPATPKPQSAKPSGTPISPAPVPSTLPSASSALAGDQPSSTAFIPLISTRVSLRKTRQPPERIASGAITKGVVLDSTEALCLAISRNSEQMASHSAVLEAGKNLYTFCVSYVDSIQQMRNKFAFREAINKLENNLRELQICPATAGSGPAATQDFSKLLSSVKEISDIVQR
T1 sequence (P11309 whole entry): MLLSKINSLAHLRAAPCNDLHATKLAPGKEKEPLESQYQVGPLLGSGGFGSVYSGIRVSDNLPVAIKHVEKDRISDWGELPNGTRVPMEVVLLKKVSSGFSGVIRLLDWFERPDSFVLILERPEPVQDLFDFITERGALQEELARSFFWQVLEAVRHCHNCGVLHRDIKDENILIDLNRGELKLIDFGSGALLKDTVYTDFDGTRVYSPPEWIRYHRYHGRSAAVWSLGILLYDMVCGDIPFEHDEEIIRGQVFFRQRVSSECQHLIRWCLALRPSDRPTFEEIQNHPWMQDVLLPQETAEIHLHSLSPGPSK
T2 sequence (Q9BYP7 whole entry): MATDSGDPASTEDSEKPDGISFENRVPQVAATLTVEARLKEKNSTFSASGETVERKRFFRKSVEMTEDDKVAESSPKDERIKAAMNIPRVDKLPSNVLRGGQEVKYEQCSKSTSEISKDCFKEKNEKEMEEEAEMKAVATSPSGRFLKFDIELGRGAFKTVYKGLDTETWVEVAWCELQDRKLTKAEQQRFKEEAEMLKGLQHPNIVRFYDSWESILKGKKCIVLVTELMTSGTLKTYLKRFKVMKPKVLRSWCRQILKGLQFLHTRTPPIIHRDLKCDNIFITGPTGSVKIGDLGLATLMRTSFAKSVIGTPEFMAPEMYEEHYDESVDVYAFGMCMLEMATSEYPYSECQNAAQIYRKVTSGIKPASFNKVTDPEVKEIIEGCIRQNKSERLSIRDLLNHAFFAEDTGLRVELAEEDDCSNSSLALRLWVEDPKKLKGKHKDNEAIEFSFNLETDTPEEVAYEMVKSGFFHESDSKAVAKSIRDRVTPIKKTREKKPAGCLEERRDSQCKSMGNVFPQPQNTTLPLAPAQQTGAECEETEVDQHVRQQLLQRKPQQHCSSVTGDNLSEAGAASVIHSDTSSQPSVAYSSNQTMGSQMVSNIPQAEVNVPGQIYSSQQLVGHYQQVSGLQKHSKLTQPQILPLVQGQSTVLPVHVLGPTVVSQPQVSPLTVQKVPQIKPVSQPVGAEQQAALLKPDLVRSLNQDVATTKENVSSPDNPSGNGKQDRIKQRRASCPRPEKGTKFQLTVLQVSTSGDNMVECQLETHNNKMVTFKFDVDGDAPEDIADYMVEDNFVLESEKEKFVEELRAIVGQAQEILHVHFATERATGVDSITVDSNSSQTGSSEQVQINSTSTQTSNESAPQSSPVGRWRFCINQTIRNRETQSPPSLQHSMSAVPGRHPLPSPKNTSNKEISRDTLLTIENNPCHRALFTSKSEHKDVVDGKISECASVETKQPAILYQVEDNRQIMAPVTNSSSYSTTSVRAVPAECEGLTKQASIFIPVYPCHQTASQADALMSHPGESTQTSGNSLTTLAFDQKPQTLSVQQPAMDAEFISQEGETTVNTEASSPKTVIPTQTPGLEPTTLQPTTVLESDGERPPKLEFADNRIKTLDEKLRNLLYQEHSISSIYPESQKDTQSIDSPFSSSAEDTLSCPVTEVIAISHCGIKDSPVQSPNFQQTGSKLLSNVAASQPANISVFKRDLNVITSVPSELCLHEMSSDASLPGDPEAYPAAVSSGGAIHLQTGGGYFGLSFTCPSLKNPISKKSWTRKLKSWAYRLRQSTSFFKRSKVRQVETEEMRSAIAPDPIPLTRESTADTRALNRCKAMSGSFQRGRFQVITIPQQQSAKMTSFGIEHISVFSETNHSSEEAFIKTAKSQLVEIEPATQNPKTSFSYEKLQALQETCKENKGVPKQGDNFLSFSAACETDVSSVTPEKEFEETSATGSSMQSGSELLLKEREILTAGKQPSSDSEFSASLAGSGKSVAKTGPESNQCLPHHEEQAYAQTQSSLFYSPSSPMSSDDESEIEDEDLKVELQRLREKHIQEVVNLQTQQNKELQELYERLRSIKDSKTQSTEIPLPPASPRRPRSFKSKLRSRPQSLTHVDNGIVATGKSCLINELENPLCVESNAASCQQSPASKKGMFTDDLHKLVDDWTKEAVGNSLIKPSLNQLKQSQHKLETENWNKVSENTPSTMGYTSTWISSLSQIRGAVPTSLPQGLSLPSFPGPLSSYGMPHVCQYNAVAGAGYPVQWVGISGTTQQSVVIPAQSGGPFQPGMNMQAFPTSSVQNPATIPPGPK

Cc1nn2c(ncc3c(=O)n(-c4ccccc4)ccc32)c1-c1ccccc1 [VI301, 2-methyl-3,7-diphenylpyrazolo[1,5-a]pyrido[3,4-e]pyrimidin-6(7H)-one]
inhibition at 100 µM (Pim-1(h)): 12%
inhibition at 100 µM (Abl kinase (BCR-Abl)): 106%
inhibition at 100 µM (WNK3(h)): 3%
inhibition at 100 µM (CamK1): 26%
inhibition at 100 µM (Lyn(h)): 95%
inhibition of LYN kinase (in words) (Lyn(h)): good inhibition

Cc1nc(Nc2ncc(C(=O)Nc3c(C)cccc3Cl)s2)cc(N2CCN(CCO)CC2)n1 [Dasatinib, N-(2-chloro-6-methylphenyl)-2-[[6-[4-(2-hydroxyethyl)-1-piperazinyl]-2-methyl-4-pyrimidinyl]amino]-5-thiazole carboxamide]
phosphorylated (activated) LYN (LYN): decreased phosphorylated (activated) LYN
cell proliferation [1]: not proliferation
cell invasion [2]: blocked invasion
